Measured values from article PMC8199067, “Urolithin and Reduced Urolithin Derivatives as Potent Inhibitors of Tyrosinase and Melanogenesis: Importance of the 4-Substituted Resorcinol Moiety” (International Journal of Molecular Sciences, 2021).
“And” between values parts separate entries of the source, which are not always exact repeats. Equal entries are not always repeated. “Also recorded” adds a separate entry of the source. Where two headings read alike, the source gives them in different places. Values belong to the compound of their own block, whether it stands above or below them.

Key:
[1] = biological target: T1, mushroom tyrosinase (Agaricus bisporus, UniProt C7FF04); experiment: Mushroom tyrosinase inhibitory assay (L-tyrosine substrate); assay type: biochemical; conditions: for inhibition at 50 µM / Tyrosinase Inhibition (%): L-tyrosine as substrate, mean ± SEM, NI means no inhibition, 50 μM
Protocol: The experiment was repeated three times. Mushroom tyrosinase inhibitions % were calculated using:% Inhibition = [1 − (A/B)] × 100(1) where A is the absorbance of the test compound and B is the absorbance of the blank.
Log-linear curves were plotted, and their equations were determined.
Target sequence in this assay (C7FF04 1-392 limits assumed): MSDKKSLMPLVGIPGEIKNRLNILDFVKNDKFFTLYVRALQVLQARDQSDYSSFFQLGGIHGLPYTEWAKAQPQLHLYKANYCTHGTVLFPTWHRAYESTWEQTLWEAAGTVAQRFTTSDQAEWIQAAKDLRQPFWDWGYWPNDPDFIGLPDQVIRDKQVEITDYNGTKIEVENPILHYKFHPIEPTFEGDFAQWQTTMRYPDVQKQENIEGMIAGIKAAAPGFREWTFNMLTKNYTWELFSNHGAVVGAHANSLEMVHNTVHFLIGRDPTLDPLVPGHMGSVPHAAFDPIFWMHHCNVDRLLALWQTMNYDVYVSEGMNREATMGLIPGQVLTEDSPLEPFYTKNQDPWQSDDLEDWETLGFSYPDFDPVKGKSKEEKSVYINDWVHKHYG

[2] = biological target: T1, mushroom tyrosinase; experiment: Kinetic analysis of mushroom tyrosinase inhibition, Lineweaver–Burk plots; assay type: biochemical; conditions: for Mode of tyrosinase inhibition: Lineweaver–Burk analysis, L-tyrosine as substrate
Protocol: Briefly, 170 μL of a mixture of an aqueous solution of L-[…].0, 2.0, 4.0, or 8.0 mM and 50 mM of potassium phosphate (pH 6.5) was added to a 96-well plate. […] Lineweaver-Burk plots were used to determine Vmax (maximal reaction rates) and KM (Michaelis-Menten constants) of mushroom tyrosinase activities.
Target sequence in this assay (C7FF04 1-392): as the sequence (C7FF04 1-392 limits assumed) above

[3] = EZ-cytox cell viability assay; assay type: cell-based, murine; conditions: mouse, B16F10 melanoma cells, 20 µM
Protocol: (§1) EZ-cytox assays were performed to examine whether these compounds are cytotoxic.
(§2) B16F10 murine melanoma cells were purchased from the American Type Culture Collection (ATCC, Manassas, VA, USA). Cells were cultured in Dulbecco’s modified Eagle’s medium (10% fetal bovine serum (FBS), and 1% streptomycin) obtained from Gibco/Thermo Fisher Scientific (Carlsbad, CA, USA) at 37 °C in a 5% CO2 environment. These cultured cells were used for cell viability, melanin content, and cellular tyrosinase inhibitory assays.
(§3) EZ-cytox assays were performed on 1c, 1h, and 2a, according to previously described. B16F10 cells were seeded in a 96-well plate at a density of 5 × 10^4 cells/well and incubated at 37 °C in a humidified 5% CO2 atmosphere overnight. Cells were then treated with different concentrations of 1c, 1h, or 2a (0, 1, 2, 5, 10, or 20 µM) and incubated for 24 h under the same conditions. EZ-cytox solution (10 µL) was then added and the plate was incubated for 3 h at 37 °C in a humidified 5% CO2 atmosphere. Optical densities of wells were measured at 450 nm using an ELISA reader. All experiments were independently repeated three times.

[4] = tested on: B16F10 melanoma cells; experiment: EZ-cytox cell viability assay; assay type: cell-based, murine; conditions: 1–20 µM, 24 h
Protocol: as §1, §2, §3

[5] = tested on: B16F10 melanoma cells; experiment: Melanin content assay in α-MSH plus IBMX-stimulated B16F10 melanoma cells; assay type: cell-based, murine; conditions: 48 h
Protocol: Melanin contents in B16F10 cells were assessed by measuring optical densities spectrophotometrically. […] After washing cells with PBS two or three times, they were incubated for 1 h in 100 µL of 1N NaOH solution at 60 °C. […] All experiments were independently repeated three times.

[6] = biological target: T2, tyrosinase in B16F10 melanoma cells (Mus musculus, UniProt P11344); experiment: Cellular tyrosinase activity in α-MSH plus IBMX-stimulated B16F10 melanoma cells; conditions: 48 h
T2 sequence (P11344 19-533): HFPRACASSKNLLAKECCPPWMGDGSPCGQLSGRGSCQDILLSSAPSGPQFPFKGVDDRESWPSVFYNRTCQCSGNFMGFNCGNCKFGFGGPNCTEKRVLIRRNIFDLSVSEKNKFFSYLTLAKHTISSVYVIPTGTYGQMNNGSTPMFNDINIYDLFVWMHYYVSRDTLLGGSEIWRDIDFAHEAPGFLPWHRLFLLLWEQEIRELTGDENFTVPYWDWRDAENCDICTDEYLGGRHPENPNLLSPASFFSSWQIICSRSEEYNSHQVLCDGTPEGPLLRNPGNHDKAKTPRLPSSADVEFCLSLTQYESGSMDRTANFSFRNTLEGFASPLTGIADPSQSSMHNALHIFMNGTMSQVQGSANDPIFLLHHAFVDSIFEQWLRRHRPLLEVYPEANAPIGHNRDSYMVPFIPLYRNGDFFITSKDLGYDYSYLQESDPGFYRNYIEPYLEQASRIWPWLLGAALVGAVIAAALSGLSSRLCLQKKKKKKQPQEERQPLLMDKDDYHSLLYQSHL
Protocol: Cells were washed with PBS two or three times, lysed with a 100 μL of buffer (90 μL of PBS (50 mM), 5 μL of PMSF (0.1 mM), and 5 μL of 1% Triton X-100), frozen at −80 °C for 30 min, and centrifuged at 12,000 rpm for 30 min at 4 °C. Lysate supernatants (80 µL) were mixed with 20 µL of L-dopa (2 mg/mL) in a 96-well plate and incubated at 37 °C for 15 min. […] All the experiments were independently repeated three times.

[7] = inhibitor 10 μM, L-tyrosine 1.0–8.0 mM
[8] = inhibitor 20 μM, L-tyrosine 1.0–8.0 mM
[9] = inhibitor 40 μM, L-tyrosine 1.0–8.0 mM
[10] = not dependent on inhibitor concentration
[11] = 1.56 μM, read-out: Average of Inhibition (%)
[12] = 1.56 μM, read-out: Inhibition (%), single determinations
[13] = 3.13 μM, read-out: Average of Inhibition (%)
[14] = 3.13 μM, read-out: Inhibition (%), single determinations
[15] = 6.25 μM, read-out: Average of Inhibition (%)
[16] = 6.25 μM, read-out: Inhibition (%), single determinations
[17] = 12.50 μM, read-out: Average of Inhibition (%)
[18] = 12.50 μM, read-out: Inhibition (%), single determinations
[19] = 25.00 μM, read-out: Average of Inhibition (%)
[20] = 25.00 μM, read-out: Inhibition (%), single determinations
[21] = mushroom tyrosinase, L-tyrosine, read-out: IC50

Mode of tyrosinase inhibition [2]: competitive inhibitors
Vmax [2, 7]: 0.029 mM/min
Vmax [2, 8]: 0.029 mM/min
Vmax [2, 9]: 0.029 mM/min
Vmax [2, 10]: 0.029 mM/min
Inhibition (%), single determinations ([1]; 1.56 μM): 0.27% and 0.72% and 1.06%
inhibition at 1.56 µM [1, 11]: 0.68 ± 0.23%
inhibition at 3.13 µM [1, 13]: 15.1 ± 6.53%
Inhibition (%), single determinations ([1]; 6.25 μM): 31.66% and 31.22%
inhibition at 6.25 µM [1, 15]: 31.71 ± 0.3%
inhibition at 6.25 µM [1, 16]: 32.2%
Inhibition (%), single determinations ([1]; 12.50 μM, 12.5 µM): 50.39% and 54.31%
inhibition at 12.5 µM [1, 17]: 53.5 ± 1.62%
inhibition at 12.5 µM [1, 18]: 55.8%
Inhibition (%), single determinations ([1]; 25.00 μM): 68.71% and 69.37%
inhibition at 25 µM [1, 19]: 69.3 ± 0.32%
inhibition at 25 µM [1, 20]: 69.8%
Tyrosinase Inhibition (%) [1]: 75.92 ± 2.19%
inhibition at 50 µM [1]: 76%
IC50 [1, 21]: 15.7 ± 0.4 µM
Structure (SMILES): OCc1ccccc1-c1ccc(O)cc1O [Compound 2a, 2′-(Hydroxymethyl)-[1,1′-biphenyl]-2,4-diol]
Cytotoxic effect [4]: No significant cytotoxic effect; also recorded: not cytotoxic
Melanin content ([5]; 5 µM, kojic acid 20 µM as comparator): more potently than kojic acid
Melanin content ([5]; 20 μM, kojic acid 20 µM as comparator): more so than kojic acid
Melanin content ([5]; 5, 10, 20 μM): more strongly than KA; also recorded: reduced melanin levels significantly and concentration-dependently; also recorded: effectively and dose-dependently
Cellular tyrosinase activity ([6]; 10 μM, α-MSH plus IBMX, kojic acid 20 μM as comparator): greater at 10 μM than kojic acid at 20 μM
Cellular tyrosinase activity ([6]; 20 μM, α-MSH plus IBMX, kojic acid 20 µM as comparator): much higher than that of kojic acid; also recorded: reduced tyrosinase activity to the untreated control levels
Cellular tyrosinase activity ([6]; 5, 10, 20 μM, α-MSH (1 μM) plus IBMX (200 μM)): more strongly than KA; also recorded: decreased significantly and concentration-dependently; also recorded: effectively and dose-dependently

inhibition at 50 µM [1]: < 0%
Structure (SMILES): COc1ccc(-c2ccccc2CO)c(O)c1 [Compound 2b, 2′-(Hydroxymethyl)-4-methoxy-[1,1′-biphenyl]-2-ol]

Tyrosinase Inhibition (%) [1]: 19.78 ± 15.84%
inhibition at 50 µM [1]: 20%
Structure (SMILES): OCc1ccccc1-c1c(O)cc(O)cc1O [Compound 2c, 2′-(Hydroxymethyl)-[1,1′-biphenyl]-2,4,6-triol]

inhibition at 50 µM [1]: < 0%
Structure (SMILES): COc1cc(O)c(-c2ccccc2CO)c(OC)c1 [Compound 2d, 2′-(Hydroxymethyl)-4,6-dimethoxy-[1,1′-biphenyl]-2-ol]

inhibition at 50 µM [1]: < 0%
Structure (SMILES): OCc1cc(O)ccc1-c1ccc(O)cc1O [Compound 2e, 2′-(Hydroxymethyl)-[1,1′-biphenyl]-2,4,4′-triol]

inhibition at 50 µM [1]: 47.9 ± 12.8%
Structure (SMILES): COc1ccc(-c2ccc(O)cc2O)c(CO)c1 [Compound 2f, 2′-(Hydroxymethyl)-4′-methoxy-[1,1′-biphenyl]-2,4-diol]

inhibition at 50 µM [1]: < 0%
Structure (SMILES): COc1ccc(-c2ccc(OC)cc2CO)c(O)c1 [Compound 2g, 2′-(Hydroxymethyl)-4,4′-dimethoxy-[1,1′-biphenyl]-2-ol]

Tyrosinase Inhibition (%) [1]: 26.30 ± 0.75%
inhibition at 50 µM [1]: 26%
Structure (SMILES): COc1ccc(-c2c(O)cc(O)cc2O)c(CO)c1 [Compound 2h, 2′-(Hydroxymethyl)-4′-methoxy-[1,1′-biphenyl]-2,4,6-triol]

inhibition at 50 µM [1]: < 0%
Structure (SMILES): COc1ccc(-c2c(O)cc(OC)cc2OC)c(CO)c1 [Compound 2i, 2′-(Hydroxymethyl)-4,4′,6-trimethoxy-[1,1′-biphenyl]-2-ol]

Further lines, the compound ahead of its results:

Structure (SMILES): COc1ccc2c(c1)oc(=O)c1ccccc12 [Compound 1b, 3-Methoxy-6H-benzo[c]chromen-6-one]
inhibition at 50 µM [1]: < 0%

Structure (SMILES): O=c1oc2cc(O)cc(O)c2c2ccccc12 [Compound 1c, 1,3-Dihydroxy-6H-benzo[c]chromen-6-one]
Mode of tyrosinase inhibition [2]: competitive inhibitors
Vmax [2, 7]: 0.027 mM/min
Vmax [2, 8]: 0.027 mM/min
Vmax [2, 9]: 0.027 mM/min
Vmax [2, 10]: 0.027 mM/min
Inhibition (%), single determinations ([1]; 1.56 μM): 4.01% and 2.57%
inhibition at 1.56 µM [1, 11]: 3.06 ± 0.47%
inhibition at 1.56 µM [1, 12]: 2.61%
Inhibition (%), single determinations ([1]; 3.13 μM): 10.84% and 9.94%
inhibition at 3.13 µM [1, 13]: 10.1 ± 0.37%
inhibition at 3.13 µM [1, 14]: 9.61%
Inhibition (%), single determinations ([1]; 6.25 μM): 25.08% and 33.10%
inhibition at 6.25 µM [1, 15]: 28.5 ± 2.39%
inhibition at 6.25 µM [1, 16]: 27.3%
Inhibition (%), single determinations ([1]; 12.50 μM, 12.5 µM): 45.18% and 48.37%
inhibition at 12.5 µM [1, 17]: 45.8 ± 1.37%
inhibition at 12.5 µM [1, 18]: 43.7%
Inhibition (%), single determinations ([1]; 25.00 μM): 61.85%
inhibition at 25 µM [1, 19]: 61.21 ± 0.32%
inhibition at 25 µM [1, 20]: 60.9%
Tyrosinase Inhibition (%) [1]: 68.93 ± 0.67%
inhibition at 50 µM [1]: 69%
IC50 [1, 21]: 18.1 ± 0.25 µM
viability at 24 h, 20 µM [3]: 71.4%
Cytotoxic effect [4]: weakly cytotoxic

Structure (SMILES): COc1cc(OC)c2c(c1)oc(=O)c1ccccc12 [Compound 1d, 1,3-Dimethoxy-6H-benzo[c]chromen-6-one]
inhibition at 50 µM [1]: < 0%

Structure (SMILES): O=c1oc2cc(O)cc(O)c2c2ccc(O)cc12 [Compound 1f, 1,3,8-Trihydroxy-6H-benzo[c]chromen-6-one]
Tyrosinase Inhibition (%) [1]: 12.68 ± 6.09%
inhibition at 50 µM [1]: 13%

Structure (SMILES): COc1ccc2c(c1)c(=O)oc1cc(O)ccc12 [Compound 1g, 3-Hydroxy-8-methoxy-6H-benzo[c]chromen-6-one]
inhibition at 50 µM [1]: < 0%

Structure (SMILES): COc1ccc2c(c1)c(=O)oc1cc(O)cc(O)c12 [Compound 1h, 1,3-Dihydroxy-8-methoxy-6H-benzo[c]chromen-6-one]
Mode of tyrosinase inhibition [2]: competitive inhibitors
Vmax ([2]; inhibitor 2.5 μM, L-tyrosine 1.0–8.0 mM): 0.031 mM/min
Vmax ([2]; inhibitor 5 μM, L-tyrosine 1.0–8.0 mM): 0.031 mM/min
Vmax [2, 7]: 0.031 mM/min
Vmax [2, 10]: 0.031 mM/min
IC50 [1]: 4.14 ± 0.1 µM
Inhibition (%), single determinations ([1]; 0.78 μM): 15.61% and 18.94%
inhibition at 0.78 µM ([1]; 0.78 μM, read-out: Average of Inhibition (%)): 16.7 ± 1.1%
inhibition at 0.78 µM ([1]; 0.78 μM, read-out: Inhibition (%), single determinations): 15.7%
Inhibition (%), single determinations ([1]; 1.56 μM): 24.63% and 31.11%
inhibition at 1.56 µM [1, 11]: 28 ± 1.88%
inhibition at 1.56 µM [1, 12]: 28.3%
Inhibition (%), single determinations ([1]; 3.13 μM): 48.92%
inhibition at 3.13 µM [1, 13]: 48.78 ± 0.07%
inhibition at 3.13 µM [1, 14]: 48.7%
Inhibition (%), single determinations ([1]; 6.25 μM): 63.95% and 66.79%
inhibition at 6.25 µM [1, 15]: 64.9 ± 0.94%
inhibition at 6.25 µM [1, 16]: 64%
Tyrosinase Inhibition (%) [1]: 94.86 ± 0.16%
inhibition at 50 µM [1]: 95%
viability at 24 h, 20 µM [3]: 70.8%
Cytotoxic effect [4]: weakly cytotoxic

Structure (SMILES): COc1ccc2c(c1)oc(=O)c1cc(OC)ccc12 [Compound 1i, 3,8-Dimethoxy-6H-benzo[c]chromen-6-one]
inhibition at 50 µM [1]: < 0%

Structure (SMILES): COc1cc(OC)c2c(c1)oc(=O)c1cc(OC)ccc12 [Compound 1j, 1,3,8-Trimethoxy-6H-benzo[c]chromen-6-one]
inhibition at 50 µM [1]: < 0%
